Measurements taken from ChEMBL document CHEMBL3885881, “DrugMatrix”.

Species on record: Rattus norvegicus
Assay: DrugMatrix - Regimen: Daily Repeat
Type: toxicity, organism-based, Sprague-Dawley
Design: regimen Daily Repeat, gender Male, age 6-8 weeks
Conditions: in vivo, po, 44 mg/kg, route oral GAVAGE, dose level Low, vehicle 100 % WATER; for ABSOLUTE BASOPHIL / ABSOLUTE EOSINOPHIL / ABSOLUTE LYMPHOCYTE / ABSOLUTE MONOCYTE / ABSOLUTE SEGMENTED NEUTROPHIL / BASOPHIL / EOSINOPHIL / ERYTHROCYTE COUNT / HEMATOCRIT / HEMOGLOBIN / LEUKOCYTE COUNT / LYMPHOCYTE / MEAN CORPUSCULAR HEMOGLOBIN / MEAN CORPUSCULAR HEMOGLOBIN CONCENTRATION / MEAN CORPUSCULAR VOLUME / MONOCYTE / NEUTROPHIL / NUCLEATED RED BLOOD CELLS / PLATELET COUNT: tissue Blood; for ALANINE AMINOTRANSFERASE / ALBUMIN / ALKALINE PHOSPHATASE / ASPARTATE AMINOTRANSFERASE / BLOOD UREA NITROGEN / CARBON DIOXIDE / CHLORIDE / CHOLESTEROL / CREATINE PHOSPHOKINASE / CREATININE / GLUCOSE / LACTATE DEHYDROGENASE / LIPASE / PHOSPHORUS / POTASSIUM / SODIUM / TOTAL BILIRUBIN / TOTAL PROTEIN / URIC ACID: tissue Plasma

Structure (SMILES): Cn1c(=O)c2c(ncn2CC2OCCO2)n(C)c1=O [DOXOFYLLINE]
- ABSOLUTE BASOPHIL (72 h, time 3 day): 0 CELLS/uL
- ABSOLUTE EOSINOPHIL (72 h, time 3 day): 159 CELLS/uL
- ABSOLUTE LYMPHOCYTE (72 h, time 3 day): 15168.33 CELLS/uL
- ABSOLUTE MONOCYTE (72 h, time 3 day): 106 CELLS/uL
- ABSOLUTE SEGMENTED NEUTROPHIL (72 h, time 3 day): 1466.67 CELLS/uL
- BASOPHIL (72 h, time 3 day): 0%
- EOSINOPHIL (72 h, time 3 day): 1%
- ERYTHROCYTE COUNT (72 h, time 3 day): 5.65 x10E6/uL
- HEMATOCRIT (72 h, time 3 day): 36.33%
- HEMOGLOBIN (72 h, time 3 day): 13.93 G/DL
- LEUKOCYTE COUNT (72 h, time 3 day): 16.9 x10E3/uL
- LYMPHOCYTE (72 h, time 3 day): 89.67%
- MEAN CORPUSCULAR HEMOGLOBIN (72 h, time 3 day): 24.67 pg
- MEAN CORPUSCULAR HEMOGLOBIN CONCENTRATION (72 h, time 3 day): 38.37 G/DL
- MEAN CORPUSCULAR VOLUME (72 h, time 3 day): 64.23 fL
- MONOCYTE (72 h, time 3 day): 0.67%
- NEUTROPHIL (72 h, time 3 day): 8.67%
- NUCLEATED RED BLOOD CELLS (72 h, time 3 day): 0 /100WBC
- PLATELET COUNT (72 h, time 3 day): 1263 x10E3/uL
- ALANINE AMINOTRANSFERASE (72 h, time 3 day): 51.33 u/L
- ALBUMIN (72 h, time 3 day): 4.3 G/DL
- ALKALINE PHOSPHATASE (72 h, time 3 day): 393.67 u/L
- ASPARTATE AMINOTRANSFERASE (72 h, time 3 day): 90.67 u/L
- BLOOD UREA NITROGEN (72 h, time 3 day): 15.67 mg/dL
- CARBON DIOXIDE (72 h, time 3 day): 27 mmol/L
- CHLORIDE (72 h, time 3 day): 100.33 MEQ/L
- CHOLESTEROL (72 h, time 3 day): 80.67 mg/dL
- CREATINE PHOSPHOKINASE (72 h, time 3 day): 250.67 u/L
- CREATININE (72 h, time 3 day): 0.19 mg/dL
- GLUCOSE (72 h, time 3 day): 159.33 mg/dL
- LACTATE DEHYDROGENASE (72 h, time 3 day): 324 u/L
- LIPASE (72 h, time 3 day): 9.67 u/L
- PHOSPHORUS (72 h, time 3 day): 14.4 mg/dL
- POTASSIUM (72 h, time 3 day): 7.21 MEQ/L
- SODIUM (72 h, time 3 day): 145.63 MEQ/L
- TOTAL BILIRUBIN (72 h, time 3 day): 0.17 mg/dL
- TOTAL PROTEIN (72 h, time 3 day): 5.9 G/DL
- URIC ACID (72 h, time 3 day): 1.83 mg/dL
- ABSOLUTE BASOPHIL (120 h, time 5 day): 0 CELLS/uL
- ABSOLUTE EOSINOPHIL (120 h, time 5 day): 0 CELLS/uL
- ABSOLUTE LYMPHOCYTE (120 h, time 5 day): 14176.33 CELLS/uL
- ABSOLUTE MONOCYTE (120 h, time 5 day): 62.33 CELLS/uL
- ABSOLUTE SEGMENTED NEUTROPHIL (120 h, time 5 day): 1228 CELLS/uL
- BASOPHIL (120 h, time 5 day): 0%
- EOSINOPHIL (120 h, time 5 day): 0%
- ERYTHROCYTE COUNT (120 h, time 5 day): 5.56 x10E6/uL
- HEMATOCRIT (120 h, time 5 day): 36.17%
- HEMOGLOBIN (120 h, time 5 day): 14.13 G/DL
- LEUKOCYTE COUNT (120 h, time 5 day): 15.47 x10E3/uL
- LYMPHOCYTE (120 h, time 5 day): 92.33%
- MEAN CORPUSCULAR HEMOGLOBIN (120 h, time 5 day): 25.5 pg
- MEAN CORPUSCULAR HEMOGLOBIN CONCENTRATION (120 h, time 5 day): 39.1 G/DL
- MEAN CORPUSCULAR VOLUME (120 h, time 5 day): 65.23 fL
- MONOCYTE (120 h, time 5 day): 0.33%
- NEUTROPHIL (120 h, time 5 day): 7.33%
- NUCLEATED RED BLOOD CELLS (120 h, time 5 day): 0 /100WBC
- PLATELET COUNT (120 h, time 5 day): 1347.67 x10E3/uL
- ALANINE AMINOTRANSFERASE (120 h, time 5 day): 51 u/L
- ALBUMIN (120 h, time 5 day): 4.17 G/DL
- ALKALINE PHOSPHATASE (120 h, time 5 day): 318.33 u/L
- ASPARTATE AMINOTRANSFERASE (120 h, time 5 day): 80 u/L
- BLOOD UREA NITROGEN (120 h, time 5 day): 17.33 mg/dL
- CARBON DIOXIDE (120 h, time 5 day): 29 mmol/L
- CHLORIDE (120 h, time 5 day): 100 MEQ/L
- CHOLESTEROL (120 h, time 5 day): 75.33 mg/dL
- CREATINE PHOSPHOKINASE (120 h, time 5 day): 240 u/L
- CREATININE (120 h, time 5 day): 0.17 mg/dL
- GLUCOSE (120 h, time 5 day): 165.33 mg/dL
- LACTATE DEHYDROGENASE (120 h, time 5 day): 290 u/L
- LIPASE (120 h, time 5 day): 9.67 u/L
- PHOSPHORUS (120 h, time 5 day): 12.97 mg/dL
- POTASSIUM (120 h, time 5 day): 6.07 MEQ/L
- SODIUM (120 h, time 5 day): 146.03 MEQ/L
- TOTAL BILIRUBIN (120 h, time 5 day): 0.17 mg/dL
- TOTAL PROTEIN (120 h, time 5 day): 6.07 G/DL
- URIC ACID (120 h, time 5 day): 1.5 mg/dL
